From ChEMBL document CHEMBL1201862, “PubChem BioAssay data set” (2004)
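Exposure lasted 48 hours, with cells grown in 96-well plates and compounds tested at five concentrations. GI50 = concentration required for 50% inhibition of growth.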 Active and inactive are the calls of the source. No stated cut-off is given here; in the data, active = GI50 up to about 1.1 µM and inactive = higher.

Tests used:
Assay in all cases: NCI anticancer screen, dose series, 48 h
SK-OV-3 = system: SK-OV-3
MOLT-4 = system: MOLT-4
SR = system: SR
CAKI-1 = system: CAKI-1
COLO 205 = system: COLO 205
T47D = system: T47D
SF-539 = system: SF-539
NCI-H460 = system: NCI-H460
SK-MEL-5 = system: SK-MEL-5
786-0 = system: 786-0
MDA-N = system: MDA-N
UACC-62 = system: UACC-62
M14 = system: M14
TK-10 = system: TK-10
HCT-15 = system: HCT-15
RXF 393 = system: RXF 393
KM12 = system: KM12
EKVX = system: EKVX
UACC-257 = system: UACC-257
SN12C = system: SN12C
SW-620 = system: SW-620
CCRF-CEM = system: CCRF-CEM
SK-MEL-2 = system: SK-MEL-2
HCT-116 = system: HCT-116
K562 = system: K562
BT-549 = system: BT-549
SF-268 = system: SF-268
NCI-H226 = system: NCI-H226
OVCAR-8 = system: OVCAR-8
SNB-19 = system: SNB-19
MDA-MB-435 = system: MDA-MB-435
HOP-92 = system: HOP-92
A498 = system: A498
HL-60 = system: HL-60
PC-3 = system: PC-3
SNB-75 = system: SNB-75
U-251 = system: U-251
SK-MEL-28 = system: SK-MEL-28
IGROV-1 = system: IGROV-1
Malme-3M = system: Malme-3M
A549 = system: A549
NCI/ADR-RES = system: NCI/ADR-RES
SF-295 = system: SF-295
DU-145 = system: DU-145
ACHN = system: ACHN
OVCAR-4 = system: OVCAR-4
UO-31 = system: UO-31
OVCAR-5 = system: OVCAR-5
RPMI-8226 = system: RPMI-8226
MDA-MB-231 = system: MDA-MB-231
OVCAR-3 = system: OVCAR-3
Hs-578T = system: Hs-578T
NCI-H23 = system: NCI-H23
MCF7 = system: MCF7
HOP-62 = system: HOP-62
HCC 2998 = system: HCC 2998
NCI-H522 = system: NCI-H522
HT-29 = system: HT-29
LOX IMVI = system: LOX IMVI

For Cc1ccc(C(=O)CCl)o1, the GI50 (SK-OV-3) was > 10 µM (inactive), the GI50 (MOLT-4) was 2.13 µM (inactive) and the GI50 (SR) was 3.07 µM (inactive). For the same compound, the GI50 (CAKI-1) was 3.12 µM (inactive), the GI50 (COLO 205) was 3.01 µM (inactive) and the GI50 (T47D) was 4.61 µM (inactive). For the same compound, the GI50 (SF-539) was 4.15 µM (inactive), the GI50 (NCI-H460) was > 10 µM (inactive) and the GI50 (SK-MEL-5) was > 7.96 µM (inactive). For the same compound, the GI50 (786-0) was 4.28 µM (inactive), the GI50 (MDA-N) was > 7.08 µM (inactive) and the GI50 (UACC-62) was > 7.91 µM (inactive). For the same compound, the GI50 (M14) was 3.86 µM (inactive), the GI50 (TK-10) was 6.9 µM (inactive) and the GI50 (HCT-15) was 4.93 µM. The GI50 (RXF 393) was > 9.31 µM (inactive), the GI50 (KM12) was > 10 µM (inactive) and the GI50 (EKVX) was > 10 µM (inactive). The GI50 (UACC-257) was > 9.2 µM (inactive), the GI50 (SN12C) was 3.69 µM (inactive) and the GI50 (SW-620) was 2.3 µM (inactive). For the same compound, the GI50 (CCRF-CEM) was 2.39 µM (inactive), the GI50 (SK-MEL-2) was > 10 µM (inactive) and the GI50 (HCT-116) was 1.86 µM (inactive). For the same compound, the GI50 (K562) was 3.93 µM (inactive), the GI50 (BT-549) was 5.3 µM (inactive) and the GI50 (SF-268) was > 6.97 µM (inactive). For the same compound, the GI50 (NCI-H226) was > 10 µM (inactive), the GI50 (OVCAR-8) was > 4.5 µM (inactive) and the GI50 (SNB-19) was > 10 µM (inactive). The GI50 (MDA-MB-435) was 3.25 µM (inactive), the GI50 (HOP-92) was > 10 µM (inactive) and the GI50 (A498) was > 10 µM (inactive). The GI50 (HL-60) was 2.11 µM (inactive), the GI50 (PC-3) was > 10 µM (inactive) and the GI50 (SNB-75) was > 9.46 µM (inactive). For the same compound, the GI50 (U-251) was > 10 µM (inactive), the GI50 (SK-MEL-28) was > 10 µM (inactive) and the GI50 (IGROV-1) was > 9.68 µM (inactive). The GI50 (Malme-3M) was 3.18 µM (inactive), the GI50 (A549) was > 10 µM (inactive) and the GI50 (NCI/ADR-RES) was > 10 µM (inactive). For the same compound, the GI50 (SF-295) was > 10 µM (inactive), the GI50 (DU-145) was > 10 µM (inactive) and the GI50 (ACHN) was > 10 µM (inactive). The GI50 (OVCAR-4) was 4.15 µM (inactive), the GI50 (UO-31) was > 4.67 µM (inactive) and the GI50 (OVCAR-5) was > 5.6 µM (inactive). For the same compound, the GI50 (RPMI-8226) was 2.33 µM (inactive), the GI50 (MDA-MB-231) was > 7.31 µM (inactive) and the GI50 (OVCAR-3) was > 7.23 µM (inactive). For the same compound, the GI50 (Hs-578T) was > 10 µM (inactive), the GI50 (NCI-H23) was 5.37 µM (inactive) and the GI50 (MCF7) was 3.52 µM (inactive). The GI50 (HOP-62) was > 10 µM (inactive), the GI50 (HCC 2998) was > 10 µM (inactive) and the GI50 (NCI-H522) was 2.92 µM (inactive). For the same compound, the GI50 (HT-29) was 4.71 µM (inactive) and the GI50 (LOX IMVI) was 2.98 µM (inactive).
